Reference: publication PMC12281142, “A potent phenylalkylamine disrupts mycobacterial membrane bioenergetics and augments bactericidal activity of bedaquiline” (iScience, 2025)

Tested on: Mab abscessus
Experiment: Time-kill kinetics, Mab abscessus
Type: cell-based, Mycobacterium abscessus subsp. abscessus
Conditions: 2xMIC90 (170 μM, 89 μg/mL)

CCCCCCCCC(C#N)(CCCN(C)CCc1ccc(OC)c(OC)c1)c1ccc(OC)c(OC)c1 (stereo not shown) [PhA2]
reduction of CFUs: 10^5 fold
